Read-outs that look alike come from different tables or passages of the source.
Experiments:
[1] = human, in vivo
Excerpt: To note, eGFR was estimated using Modification of Diet in Renal Disease (MDRD) equation shown below. Furthermore, participants with kidney failure who were on dialysis are not included in this regression analysis.

[2] = Urine PK and renal clearance of compound 1, Phase 1 study
[3] = in vivo; conditions: monkey
[4] = both, human, in vivo
[5] = human, in vivo; remark: listed apart in the source
[6] = human, in vivo, 500 mg
[7] = Phase 1 study, safety and tolerability in healthy participants
[8] = Intracellular PK of compound A (GS-443902) in PBMCs, Phase 1 study; conditions: healthy participants
[9] = Phase 1 single- and multiple-ascending dose study, compound 1 plasma PK in healthy participants

## CCC(CC)COC(=O)[C@H](C)N[P@](=O)(OC[C@H]1O[C@@](C#N)(c2ccc3c(N)ncnn23)[C@H](O)[C@@H]1O)Oc1ccccc1 [remdesivir]
[1]
  plasma increase of compound 1 AUCinf: ~35%
  plasma increase of compound 1 Cmax: ~10%
[2]; amount excreted in urine over the corresponding plasma AUC
  compound 1 renal clearance (CLr) after remdesivir or compound 16 administration: comparable

## N#C[C@@]1(c2ccc3c(N)ncnn23)O[C@H](CO)[C@@H](O)[C@H]1O [compound 1]
[3]
  AUC(0-t): 18200 to 36400 ng·h/mL

## CC(C)C(=O)OC[C@H]1O[C@@](C#N)(c2ccc3c(N)ncnn23)[C@H](O)[C@@H]1O [compound 16, obeldesivir]
[4]
  compound 1 terminal plasma elimination half-life: 6 to 7 h
[4]; 100 mg
  Compound 1 plasma AUC (AUCinf): 3700 ng·h/mL
  Compound 1 plasma Cmax: 570 ng/mL
  Compound 1 plasma t1/2: 5.85 h
[4]; 300 mg
  Compound 1 plasma AUC (AUCinf): 10,400 h · ng/mL
  Compound 1 plasma Cmax: 1830 ng/mL
  Compound 1 plasma Tmax: 0.78 h
[4]; 500 mg
  Compound 1 plasma Cmax: 3820 ng/mL
[4]; 900 mg
  Compound 1 plasma AUC (AUCD1): 32,000 h · ng/mL
  Compound 1 plasma AUC (AUCinf): 34,600 h · ng/mL
  Compound 1 plasma AUC (AUCtau): 35,700 h · ng/mL
  Compound 1 plasma Tmax: 1.5 h
  Compound 1 plasma t1/2: 7.36 h
[4]; 1600 mg
  Compound 1 plasma AUC (AUCinf): 48,300 h · ng/mL
  Compound 1 plasma Cmax: 7170 ng/mL
  Compound 1 plasma Tmax: 1.5 h
  Compound 1 plasma t1/2: 15.7 h
[4]; po
  plasma half-life of metabolite compound 1: ~6 h
[5]
  compound 1 metabolite renal clearance: 150 to 180 mL/min
[6]
  Compound 1 plasma AUC0-24: 20,903 h · ng/mL
  Compound 1 plasma AUCinf: 22,100 h · ng/mL
  Compound 1 plasma AUClast: 22,000 h · ng/mL
  Compound 1 plasma Cmax: 3600 ng/mL
  Compound 1 plasma t1/2: 6.3 h
[2]; in vivo
  compound 16 in urine: not detectable
[7]; 500 mg BID (n = 6)
  AE: 2 n
  AE related to study drug: 1 n
  Grade 2 creatinine clearance decrease: 0 n
  Grade 2 laboratory abnormalities: 0 n
  Grade 3 laboratory abnormalities: 0 n
  Grade 3 lipase increase: 0 n
  Grade ≥3 AE: 0 n
[7]; 900 mg QD (n = 6)
  AE: 1 n
  AE related to study drug: 0 n
  Grade 2 creatinine clearance decrease: 2 n
  Grade 2 laboratory abnormalities: 2 n
  Grade 3 laboratory abnormalities: 0 n
  Grade 3 lipase increase: 0 n
  Grade ≥3 AE: 0 n
[7]; 2 of 8 participants, Cohort 5 (500 mg BID for 5 days)
  participants with headache (Grade 1) attributed to study drug: 25%
[7]; 2 of 48 participants
  participants with contact dermatitis: 4.2%
[7]; 2 of 58 participants who received compound 16
  participants with study drug-related AEs (headaches): 3.4%
[7]; 3 of 48 participants
  participants with headache: 6.3%
[7]; 6 of 8 participants, Cohort 4 (1,600 mg single dose)
  participants with decreased creatinine clearance: 75%
[7]; 10 of 48 participants, compound 16 or placebo, Cohorts 1-6
  participants with treatment-emergent adverse events (TEAEs): 21%
[7]; 13 of 48 participants overall
  participants with decreased creatinine clearance: 27%
[7]; 18 of 58 participants who received compound 16
  participants with a decrease in creatinine clearance: 31%
[7]; 25 of 48 participants
  participants with graded postbaseline laboratory abnormalities: 52.1%
[7]; 48 participants, Cohorts 1-6
  Grade 3 or higher AEs: no Grade 3 or higher AEs
  serious AEs: no serious AEs
[7]; Cohort 2 (300 mg single dose)
  Grade 3 laboratory abnormality (lipase elevation at Day 3): one Grade 3 laboratory abnormality
[7]; Cohorts 1-6
  changes in vital signs, electrocardiograms (ECGs), visual acuity, or fundoscopic examinations: no clinically relevant changes
[7]; Example 2, Cohorts 1-6, compound 16 or placebo
  safety and tolerability: safe and well tolerated
[7]; Example 4, healthy participants
  safety and tolerability: safe and well tolerated
[7]; Fasted 500 mg (n = 11)
  AE: 3 n
  AE related to study drug: 1 n
  Grade 2 creatinine clearance decrease: 2 n
  Grade 2 laboratory abnormalities: 2 n
  Grade 3 laboratory abnormalities: 0 n
  Grade 3 lipase increase: 0 n
  Grade ≥3 AE: 0 n
[7]; Fed 500 mg (n = 11)
  AE: 1 n
  AE related to study drug: 0 n
  Grade 2 creatinine clearance decrease: 5 n
  Grade 2 laboratory abnormalities: 5 n
  Grade 3 laboratory abnormalities: 0 n
  Grade 3 lipase increase: 0 n
  Grade ≥3 AE: 0 n
[7]; single dose 100 mg (n = 6)
  AE: 1 n
  AE related to study drug: 0 n
  Grade 2 creatinine clearance decrease: 0 n
  Grade 2 laboratory abnormalities: 1 n
  Grade 3 laboratory abnormalities: 0 n
  Grade 3 lipase increase: 0 n
  Grade ≥3 AE: 0 n
[7]; single dose 300 mg (n = 6)
  AE: 0 n
  AE related to study drug: 0 n
  Grade 2 creatinine clearance decrease: 1 n
  Grade 2 laboratory abnormalities: 1 n
  Grade 3 laboratory abnormalities: 1 n
  Grade 3 lipase increase: 1 n
  Grade ≥3 AE: 0 n
[7]; single dose 900 mg (n = 6)
  AE: 0 n
  AE related to study drug: 0 n
  Grade 2 creatinine clearance decrease: 2 n
  Grade 2 laboratory abnormalities: 2 n
  Grade 3 laboratory abnormalities: 0 n
  Grade 3 lipase increase: 0 n
  Grade ≥3 AE: 0 n
[7]; single dose 1600 mg (n = 6)
  AE: 2 n
  AE related to study drug: 0 n
  Grade 2 creatinine clearance decrease: 6 n
  Grade 2 laboratory abnormalities: 6 n
  Grade 3 laboratory abnormalities: 0 n
  Grade 3 lipase increase: 0 n
  Grade ≥3 AE: 0 n
[8]
  intracellular concentrations of compound A in PBMCs versus dose: Dose-proportional increases
[9]; 900 mg QD and 500 mg BID for 5 days, respectively
  target therapeutic exposures of plasma compound 1 and intracellular compound A: reached or exceeded
[9]; 1600 mg dose
  dose proportionality of compound 1 PK: less than dose-proportional increases
[9]; 100 to 900 mg range
  dose proportionality of compound 1 PK: linear and dose-proportional PK
[9]; healthy participants
  compound 16 prodrug levels in plasma: either undetectable or low and transient

— patent US20240131045A1, “METHODS FOR TREATMENT OF VIRAL INFECTIONS” (priority 2022, published 2024)
